Assay results: US20250154198A1, “PEPTIDE INHIBITORS OF INTERLEUKIN-23 RECEPTOR” (Zealand Pharma A/S, priority 2021, published 2025)
*1 amine or outer side, *2 acyl side, *3 side chain or, on linkers, in order; H or OH if unused. Where a SMILES comes first, the peptide text is derived from it. Bridges are numbered along the chain shown (N, C = ends). [ ]: non-standard residue; d: D form. The star is where a group is joined. Me3N+(CH2)2O(CH2)2O(CH2)2CO = C[N+](C)(C)CCOCCOCCC(=O)*; Trp(7-Me) = Cc1cccc2c(C[C@H](N)C(=O)O)c[nH]c12; 2Nal = N[C@@H](Cc1ccc2ccccc2c1)C(=O)O; AEF = NCCOc1ccc(C[C@H](N)C(=O)O)cc1; X1 = O=C(Cc1ccc(CN[*:1])cc1)[*:2]; 4Pal = N[C@@H](Cc1ccncc1)C(=O)O; αMeL = CC(C)C[C@](C)(N)C(=O)O; CH2COCH2 = O=C(C[*:1])C[*:2]; 3Amb = NCc1cccc(C(=O)O)c1; dDab = NCC[C@@H](N)C(=O)O; Orn = NCCC[C@H](N)C(=O)O; Dab = NCC[C@H](N)C(=O)O

Each compound was assayed against T1, human IL-23R (Homo sapiens, UniProt Q5VWK5) (assay: Binding assay (NanoBRET displacement of fluorophore-labelled reference compound) for estimating binding affinity to human IL-23R). Details: not given.
T1 construct: UniProtKB—Q5VWK5, amino acids 22-629; secretion signal of the plasmid (Promega N1371); expressed in transfected cells
T1 sequence (Q5VWK5 22-629): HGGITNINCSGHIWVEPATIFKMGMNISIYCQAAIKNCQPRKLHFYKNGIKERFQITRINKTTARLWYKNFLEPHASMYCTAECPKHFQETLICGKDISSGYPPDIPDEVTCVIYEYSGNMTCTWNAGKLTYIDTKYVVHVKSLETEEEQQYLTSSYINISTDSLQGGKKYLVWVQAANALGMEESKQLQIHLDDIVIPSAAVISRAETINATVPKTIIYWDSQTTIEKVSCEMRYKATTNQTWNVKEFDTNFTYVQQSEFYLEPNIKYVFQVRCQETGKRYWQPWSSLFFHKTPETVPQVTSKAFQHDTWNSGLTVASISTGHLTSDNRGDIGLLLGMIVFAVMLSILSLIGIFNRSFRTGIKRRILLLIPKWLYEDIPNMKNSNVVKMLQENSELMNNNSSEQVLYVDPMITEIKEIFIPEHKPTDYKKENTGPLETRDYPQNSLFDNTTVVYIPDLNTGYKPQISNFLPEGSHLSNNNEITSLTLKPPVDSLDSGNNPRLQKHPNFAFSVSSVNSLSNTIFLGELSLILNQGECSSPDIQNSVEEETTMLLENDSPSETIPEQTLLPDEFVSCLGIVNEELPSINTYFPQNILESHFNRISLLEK
Excerpt: Binding Assay for Estimating Binding Affinity of Compounds to Human IL-23R
The compound binding affinity for IL-23R was estimated by the ability of compounds to displace a fluorophore-labelled reference compound from the human IL-23R. The assay principle relies on Bioluminescence Resonance Energy Transfer (BRET) between a fluorophore-labelled reference compound binding to the IL-23R part of a fusion protein consisting of the IL-23R fused to a Nanoluc luciferase enzyme (Nanoluc). The Nanoluc is placed in the N-terminus in close proximity to the binding domain of the ligand. Upon close proximity between the fluorophore of the fluorophore-labelled compound and the Nanoluc of the fusion protein, bioluminescence energy generated from conversion of a Nanoluc substrate, is transferred to the fluorophore resulting in an increase in BRET. In presence of an unlabelled compound, the unlabelled compound displaces the fluorophore-labelled peptide from its binding site resulting in a decrease in BRET. The concentration for which half of the fluorophore-labelled peptide is displaced by the unlabelled compound depends on the affinity of the compound for the IL-23R, and is termed the IC50 concentration. An estimated affinity (K) of the unlabelled compound for the IL-23R may be calculated using the Cheng-Prussov equation, which takes into account the concentration of the fluorophore-labelled compound used, and the affinity of the fluorophore-labelled compound for IL-23R.
The plasmid also contained a gene to confer resistance for the antibiotic hygromycin. A cell line stably expressing the Nluc-IL23R fusion protein was generated by transfection of HEK293 cells with the expression plasmid and selected with hygromycin for 3 weeks in Growth medium consisting of DMEM w/Glutamax-I containing, 10% V/V FBS, 1% V/V P/S, 1 mM Sodium Pyruvate, and 1×NEAA, and 0.3 mg/mL hygromycin. The remaining cells were propagated and considered a stable expressing Nluc-IL23R fusion protein pool clone.
Cells expressing the Nluc-IL23R fusion protein were expanded in Growth medium and membranes prepared by homogenization of a cell pellet from 18 T175 flasks (4° C. in subsequent steps). The cell pellet was lysed Tris 10 mM, 7.5, 1 mM EDTA and protease inhibitors (Complete, Roche) and homogenized using a 15 mL glass-dounce by 50 strokes. The homogenate was spun at spin @1500 rpm for 10 min, the supernatant transferred to SV-34 tubes and spun at 40000 g for 20 min at 4° C. to pellet the crude membranes. The supernatant was then removed, the pellet resuspended in 5 mL buffer containing 50 mM HEPES pH 7.4, 5 mM EGTA, and 5 mM MgCl2, and homogenized. Aliquots of the resuspended and homogenized membranes containing the Nluc-IL23R fusion protein were stored at −80° C. until use.
The plate was sealed with light impermeable plate seals, and incubated on a orbital shaker 400 rpm for 2 hours at room temperature. To determine the BRET ratio, the plate seal was removed and 25 μL of the Nanoluc substrate (Promega N1572) diluted 1:500 was added to each well and incubated for 1-2 minutes on an orbital shaker at 400 rpm. […] The BRET ratio was calculated as the fluorescence from the TAMRA/nanoluc bioluminescence. The IC50 for each compound was determined by computer-aided curve fitting using a 4-parameter logistic (4PL) non-linear model.

| Structure (SMILES) | Ki |
| --- | --- |
| CC(C)C[C@@H]1NC(=O)[C@H](Cc2c[nH]c3ccccc23)NC(=O)[C@H](Cc2c[nH]c3ccccc23)NC(=O)[C@@H]2CSSC[C@H](NC(=O)[C@H](CO)NC(=O)[C@@H](NC(=O)[C@@H](N)CC(=O)O)CSCC(=O)CSC[C@@H](C(=O)N[C@@H](CCCNC(=N)N)C(N)=O)NC1=O)C(=O)N[C@@H](Cc1c[nH]c3ccccc13)C(=O)N[C@@H](CCC(N)=O)C(=O)N2 [Compound 53, H-DC(1a)SC(2b)WQC(2b)WWLC(1a)R-[NH2]] | > 1000 nM |
| CC(=O)N[C@@H](CC(=O)O)C(=O)N[C@H]1CSCC(=O)CSC[C@@H](C(=O)N[C@@H](CCC(=O)O)C(=O)N[C@@H](CC(N)=O)C(=O)NCC(N)=O)NC(=O)[C@](C)(CC(C)C)NC(=O)[C@H](Cc2c[nH]c3ccccc23)NC(=O)[C@H](Cc2c[nH]c3ccccc23)NC(=O)[C@@H]2CSCC(=O)CSC[C@H](NC(=O)[C@H](CCC(N)=O)NC1=O)C(=O)N[C@@H](Cc1c[nH]c3ccccc13)C(=O)N[C@@H](CCC(N)=O)C(=O)N2 [Compound 64, [Ac]-DC(1a)QC(2a)WQC(2a)WW[2-Me-Leu]C(1a)ENG-[NH2]] (Ac-DCQCWQCWW[αMeL]CENG-NH2; linker 2-11, 4-7 via CH2COCH2) | > 1000 nM |

Same assay, conditions: Table 3-1; read-out: Ki hIL-23R

| Ki | Structure (SMILES) |
| --- | --- |
| 0.76 nM | CC(C)C[C@]1(C)NC(=O)[C@H](Cc2ccc3ccccc3c2)NC(=O)[C@H](Cc2ccc(OCCN)cc2)NC(=O)[C@@H]2CCNC(=O)CC[C@H](NC(=O)[C@H](CO)NC(=O)c3cccc(c3)CNC(=O)CC[C@@H](C(=O)N[C@@H](CCCNC(=N)N)C(N)=O)NC1=O)C(=O)N[C@@H](Cc1c[nH]c3ccccc13)C(=O)N[C@@H](CCC(N)=O)C(=O)N2 [Compound 67, [(3-Aminomethyl)benzoyl](1c)*SE(2c)WQ[Dab](2c)[Y(2-aminoethoxy)][2-Nal][2-Me-Leu]E(1c)R-[NH2]] ([3Amb]SEWQ[Dab][AEF][2Nal][αMeL]ER-NH2; lactam 3-6, N-10) |
| 2.76 nM | CC(C)C[C@]1(C)NC(=O)[C@H](Cc2ccc3ccccc3c2)NC(=O)[C@H](Cc2ccc(OCCN)cc2)NC(=O)[C@@H]2CCCNC(=O)CC[C@H](NC(=O)[C@H](CO)NC(=O)c3cccc(c3)CNC(=O)CC[C@@H](C(=O)N[C@@H](CCCNC(=N)N)C(N)=O)NC1=O)C(=O)N[C@@H](Cc1c[nH]c3ccccc13)C(=O)N[C@@H](CCC(N)=O)C(=O)N2 [Compound 69, [(3-Aminomethyl)benzoyl](1c)*SE(2c)WQ[Orn](2c)[Y(2-aminoethoxy)][2-Nal][2-Me-Leu]E(1c)R-[NH2]] ([3Amb]SEWQ[Orn][AEF][2Nal][αMeL]ER-NH2; lactam 3-6, N-10) |
| 0.485 nM | Cc1cccc2c(C[C@@H]3NC(=O)[C@@H]4CSCC(=O)CSC[C@H](NC(=O)[C@H](CCC(N)=O)NC3=O)C(=O)N[C@@H](Cc3ccc(OCCN)cc3)C(=O)N[C@@H](Cc3ccc5ccccc5c3)C(=O)N[C@@](C)(CC(C)C)C(=O)N[C@H](C(=O)N[C@@H](CCCNC(=N)N)C(N)=O)CCC(=O)NCc3cccc(c3)C(=O)N[C@@H](CO)C(=O)N4)c[nH]c12 [Compound 70, [(3-Aminomethyl)benzoyl](1c)*SC(2a)[7-Me-Trp]QC(2a)[Y(2-aminoethoxy)][2-Nal][2-Me-Leu]E(1c)R-[NH2]] ([3Amb]SC[Trp(7-Me)]QC[AEF][2Nal][αMeL]ER-NH2; linker 3-6 via CH2COCH2; lactam N-10) |
| 2.09 nM | CC(C)C[C@]1(C)NC(=O)[C@H](Cc2ccc3ccccc3c2)NC(=O)[C@H](Cc2ccc(OCCN)cc2)NC(=O)[C@@H]2CSCC(=O)CSC[C@H](NC(=O)[C@H](CO)NC(=O)c3cccc(c3)CNC(=O)CC[C@@H](C(=O)N[C@@H](CCCNC(=N)N)C(=O)N[C@@H](Cc3ccncc3)C(N)=O)NC1=O)C(=O)N[C@@H](Cc1c[nH]c3ccccc13)C(=O)N[C@@H](CCC(N)=O)C(=O)N2 [Compound 79, [(3-Aminomethyl)benzoyl](1c)*SC(2a)WQC(2a)[Y(2-aminoethoxy)][2-Nal][2-Me-Leu]E(1c)R[3-(4-Pyridyl)-Ala]-[NH2]] ([3Amb]SCWQC[AEF][2Nal][αMeL]ER[4Pal]-NH2; linker 3-6 via CH2COCH2; lactam N-10) |
| 0.922 nM | CC(=O)N[C@H]1CCCCNC(=O)CC[C@@H](C(=O)N[C@H](CCCNC(=N)N)C(N)=O)NC(=O)[C@](C)(CC(C)C)NC(=O)[C@H](Cc2ccc3ccccc3c2)NC(=O)[C@H](Cc2ccc(OCCN)cc2)NC(=O)[C@@H]2CSCC(=O)CSC[C@H](NC(=O)[C@H](CO)NC1=O)C(=O)N[C@@H](Cc1c[nH]c3ccccc13)C(=O)N[C@@H](CCC(N)=O)C(=O)N2 [Compound 84, [Ac]-K(1c)SC(2a)WQC(2a)[Y(2-aminoethoxy)][2-Nal][2-Me-Leu]E(1c)[{d}R]-[NH2]] (Ac-KSCWQC[AEF][2Nal][αMeL]E[dR]-NH2; lactam 1-10; linker 3-6 via CH2COCH2) |
| 0.0995 nM | CC(C)C[C@]1(C)NC(=O)[C@H](Cc2ccc3ccccc3c2)NC(=O)[C@H](Cc2ccc(OCCN)cc2)NC(=O)[C@@H]2CSCC(=O)CSC[C@H](NC(=O)[C@H](CO)NC(=O)Cc3ccc(cc3)CNC(=O)CC[C@@H](C(=O)N[C@H](CCCNC(=N)N)C(=O)O)NC1=O)C(=O)N[C@@H](Cc1c[nH]c3ccccc13)C(=O)N[C@@H](CCC(N)=O)C(=O)N2 [Compound 108, [4-Aminomethyl-phenylacetyl](1c)*SC(2a)WQC(2a)[Y(2-aminoethoxy)][2-Nal][2-Me-Leu]E(1c)[{d}R]-[OH]] ([X1]SCWQC[AEF][2Nal][αMeL]E[dR]-OH; linker 3-6 via CH2COCH2; lactam N-10) |
| 0.46 nM | CC(C)C[C@]1(C)NC(=O)[C@H](Cc2ccc3ccccc3c2)NC(=O)[C@H](Cc2ccc(OCCN)cc2)NC(=O)[C@@H]2CSCC(=O)CSC[C@H](NC(=O)[C@H](CO)NC(=O)Cc3ccc(cc3)CNC(=O)CC[C@@H](C(=O)N[C@H](CCNC(=O)CCOCCOCC[N+](C)(C)C)C(N)=O)NC1=O)C(=O)N[C@@H](Cc1c[nH]c3ccccc13)C(=O)N[C@@H](CCC(N)=O)C(=O)N2 [Compound 109, [4-Aminomethyl-phenylacetyl](1c)*SC(2a)WQC(2a)[Y(2-aminoethoxy)][2-Nal][2-Me-Leu]E(1c)[{d}2,4-Diaminobutanoyl([2-(trimethyl-2-aminoethoxy)ethoxy]propyl)]-[NH2]] ([X1]SCWQC[AEF][2Nal][αMeL]E[dDab](Me3N+(CH2)2O(CH2)2O(CH2)2CO)-NH2; linker 3-6 via CH2COCH2; lactam N-10) |
| 0.182 nM | CC(C)C[C@]1(C)NC(=O)[C@H](Cc2ccc3ccccc3c2)NC(=O)[C@H](Cc2ccc(OCCN)cc2)NC(=O)[C@@H]2CSCC(=O)CSC[C@H](NC(=O)[C@H](CO)NC(=O)Cc3ccc(cc3)CNC(=O)CC[C@@H](C(=O)N[C@H](CCC(N)=O)C(N)=O)NC1=O)C(=O)N[C@@H](Cc1c[nH]c3ccccc13)C(=O)N[C@@H](CCC(N)=O)C(=O)N2 [Compound 115, [4-Aminomethyl-phenylacetyl](1c)*SC(2a)WQC(2a)[Y(2-aminoethoxy)][2-Nal][2-Me-Leu]E(1c)[{d}Q]-[NH2]] ([X1]SCWQC[AEF][2Nal][αMeL]E[dQ]-NH2; linker 3-6 via CH2COCH2; lactam N-10) |
